The target in assay [1] is T1, Caspase-3 (Mus musculus) (UniProt P70677).
T1 sequence (whole entry): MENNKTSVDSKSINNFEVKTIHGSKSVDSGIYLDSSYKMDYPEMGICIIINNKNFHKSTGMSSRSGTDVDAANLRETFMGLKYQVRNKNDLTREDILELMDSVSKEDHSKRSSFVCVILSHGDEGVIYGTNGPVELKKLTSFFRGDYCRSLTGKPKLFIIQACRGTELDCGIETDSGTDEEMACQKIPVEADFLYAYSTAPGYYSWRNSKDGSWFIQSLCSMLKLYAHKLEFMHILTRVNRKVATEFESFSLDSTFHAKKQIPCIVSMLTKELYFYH
Kind of assay: Inhibition of cisplatin induced caspase-3 activation in mouse J774.A1 cells at 0.5 uM preincubated for 30 mins followed by cisplatin addition and incubated overnight. It counts as cell-based.

The target of assay [2] is T2, Caspase-7 (Mus musculus) (UniProt P97864).
T2 sequence (whole entry): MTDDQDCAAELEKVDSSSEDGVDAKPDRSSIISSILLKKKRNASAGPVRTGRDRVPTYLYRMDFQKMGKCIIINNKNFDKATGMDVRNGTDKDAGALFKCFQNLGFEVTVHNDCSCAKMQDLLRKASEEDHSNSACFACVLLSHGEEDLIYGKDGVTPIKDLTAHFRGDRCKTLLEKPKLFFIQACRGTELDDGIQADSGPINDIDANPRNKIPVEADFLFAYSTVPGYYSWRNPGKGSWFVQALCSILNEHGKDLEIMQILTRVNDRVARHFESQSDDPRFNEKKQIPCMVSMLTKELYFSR
Description: Inhibition of cisplatin induced caspase-7 activation in mouse J774.A1 cells at 0.5 uM preincubated for 30 mins followed by cisplatin addition and incubated overnight. It counts as cell-based.

The subject of assay [3] is J774.A1. Description: Downregulation of inhibitor kappa B-alpha phosphorylation in mouse J774.A1 cells preincubated for 30 mins followed by LPS addition and measured after 2 hrs by Western blotting analysis. In kind it is functional, cell-based. The conditions noted are these: time 2.5 hrs. (In general: A western blot detects proteins with antibodies after separation by electrophoresis.)

Assay [4] deals with J774.A1. Description: Downregulation of IKKalpha/beta phosphorylation in mouse J774.A1 cells preincubated for 30 mins followed by LPS addition and measured after 2 hrs by Western blotting analysis. In kind it is functional, cell-based. To be noted: time 2.5 hrs.
In assay [5] the test system is J774.A1. Description: Downregulation of p65 phosphorylation in mouse J774.A1 cells preincubated for 30 mins followed by LPS addition and measured after 2 hrs by Western blotting analysis. The conditions noted are these: time 2.5 hrs. In kind it is functional, cell-based.
Assay [6] addresses T3, Caspase-1 (Mus musculus) (UniProt P29452).
T3 sequence (whole entry): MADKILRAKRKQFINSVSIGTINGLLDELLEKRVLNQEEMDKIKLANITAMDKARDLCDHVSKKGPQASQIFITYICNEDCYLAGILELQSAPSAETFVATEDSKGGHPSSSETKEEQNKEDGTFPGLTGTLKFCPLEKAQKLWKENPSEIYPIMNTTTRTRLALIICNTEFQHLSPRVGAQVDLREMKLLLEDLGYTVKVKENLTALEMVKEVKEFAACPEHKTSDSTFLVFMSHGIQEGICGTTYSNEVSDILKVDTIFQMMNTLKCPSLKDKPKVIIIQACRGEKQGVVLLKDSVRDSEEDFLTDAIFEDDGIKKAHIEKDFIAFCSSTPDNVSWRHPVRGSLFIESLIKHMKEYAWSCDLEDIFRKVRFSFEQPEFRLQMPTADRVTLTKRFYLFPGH
Description: Binding affinity to caspase-1 in LPS-induced mouse J774.A1 cells assessed as reduction in IL-1beta level at 0.5 uM preincubated with compound followed by nigericin addition. It counts as cell-based. To be noted: time 3-24 hrs.

Assay [7] has as its system J774.A1. Description: Inhibition of pyroptosis in mouse J774.A1 cells assessed as reduction in number of annexin V and PI positive cells pretreated with LPS for 3 hrs followed by compound addition in presence of nigericin by flow cytometry analysis. It counts as functional, cell-based. In general terms: In flow cytometry, cells or beads pass a laser one at a time.
For assay [8], the system named is J774.A1. Description: Inhibition of pyroptosis in mouse J774.A1 cells assessed as reduction in LDH release at 0.5 to 2 uM pretreated with LPS for 3 hrs followed by compound addition in presence of nigericin. It counts as functional, cell-based. To be noted: dose 0.5-2 µM. (LDH in the medium is a marker of cell lysis.)
Assay [9] relates to J774.A1. Description: Inhibition of pyroptosis in mouse J774.A1 cells assessed as reduction in caspase-1 to GSDMD interaction at 0.5 uM pretreated with LPS for 3 hrs followed by compound addition in presence of nigericin by immunoprecipitation analysis. In kind it is functional, cell-based.
The test system of assay [10] is J774.A1. Description: Inhibition of pyroptosis in mouse J774.A1 cells assessed as reduction in cleaved GSDMD expression pretreated with LPS for 3 hrs followed by compound addition in presence of nigericin by Western blotting analysis. In kind it is functional, cell-based.
The subject of assay [11] is Mus musculus. Description: Anti-inflammatory activity in MSU/C18:0 free fatty acid induced ip dosed Kunming mouse model of gouty arthritis assessed as reduction in joint swelling preadministered with compound for 30 mins followed by MSU/C18:0 free fatty acid injection and measured after 24 hrs. It counts as functional, organism-based. To be noted: time 24.5 hrs.
Assay [12] addresses T4, Caspase-1 (Homo sapiens) (UniProt P29466).
T4 sequence (whole entry): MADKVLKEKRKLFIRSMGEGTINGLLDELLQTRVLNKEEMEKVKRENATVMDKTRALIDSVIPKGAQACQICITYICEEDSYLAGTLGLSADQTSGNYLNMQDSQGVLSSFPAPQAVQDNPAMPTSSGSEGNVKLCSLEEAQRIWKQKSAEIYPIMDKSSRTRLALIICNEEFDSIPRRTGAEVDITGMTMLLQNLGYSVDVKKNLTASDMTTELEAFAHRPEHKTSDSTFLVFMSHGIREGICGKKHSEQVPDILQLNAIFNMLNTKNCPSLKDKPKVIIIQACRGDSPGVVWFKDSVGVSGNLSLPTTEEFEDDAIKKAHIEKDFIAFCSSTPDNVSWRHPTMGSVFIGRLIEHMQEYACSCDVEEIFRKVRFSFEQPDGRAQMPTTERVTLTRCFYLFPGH
Kind of assay: Inhibition of caspase-1 activity (unknown origin). The conditions noted are these: dose 50-300 µM.

Assay [13] has as its system J774.A1. Kind of assay: Inhibition of IL-1beta release in mouse J774.A1 cells at 20 uM pretreated with LPS for 3 hrs followed by compound addition for 30 mins and nigericin stimulation for 45 mins. In kind it is functional, cell-based. The conditions noted are these: time 75.0 min.
The test system of assay [14] is J774.A1. Kind of assay: Binding affinity to pro-caspase 1 in mouse J774.A1 cell lysates at 1 to 2 uM incubated for 2 hrs by pull-down assay. It counts as subcellular. The conditions noted are these: dose 1-2 µM.
Assay [15] has as its system J774.A1. Kind of assay: Binding affinity to pro-caspase 1 in mouse J774.A1 cell lysates at 1 to 2 uM incubated for 2 hrs in presence of 1'-benzyl 6-(tert-butyl) (1R,4R,6R)-4-isothiocyanato-5'-methoxy-2'-oxospiro[cyclohexane-1,3'-indolin]-2-ene-1',6-dicarboxylate by pull-down assay. In kind it is subcellular. To be noted: dose 1-2 µM.
Assay [16] relates to J774.A1. Kind of assay: Binding affinity to pro-caspase 1 in mouse J774.A1 cells at 50 uM pretreated with LPS for 3 hrs and nigericin stimulation for 45 mins followed by compound addition by pull-down assay. In kind it is cell-based.
The subject of assay [17] is J774.A1. Description: Binding affinity to pro-caspase 1 in mouse J774.A1 cells by Western blotting analysis. It counts as cell-based.
Assay [18] addresses NFU1 iron-sulfur cluster scaffold homolog, mitochondrial (Mus musculus) (UniProt Q9QZ23). Kind of assay: Binding affinity to Nfu1 in mouse J774.A1 cells lysate by mass-spectrophotometric assay. In kind it is subcellular.
Assay [19] deals with Thioredoxin (Mus musculus) (UniProt P10639). Kind of assay: Binding affinity to Txn in mouse J774.A1 cells lysate by mass-spectrophotometric assay. In kind it is subcellular.

The text below walks through data of ChEMBL document CHEMBL5584334, “Discovery of a Covalent Inhibitor of Pro-Caspase-1 Zymogen Blocking NLRP3 Inflammasome Activation and Pyroptosis” (J Med Chem, 2024).

Each structure is given as a SMILES string. Calls of active or inactive are those of the source. The calls are words filed in the database; no cut-off is given here.

Thioredoxin (Mus musculus), sequence (P10639 whole entry): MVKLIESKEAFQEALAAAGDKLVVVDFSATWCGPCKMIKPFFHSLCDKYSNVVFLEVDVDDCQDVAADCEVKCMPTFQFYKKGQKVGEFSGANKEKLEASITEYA
NFU1 iron-sulfur cluster scaffold homolog, mitochondrial (Mus musculus), sequence (Q9QZ23 whole entry): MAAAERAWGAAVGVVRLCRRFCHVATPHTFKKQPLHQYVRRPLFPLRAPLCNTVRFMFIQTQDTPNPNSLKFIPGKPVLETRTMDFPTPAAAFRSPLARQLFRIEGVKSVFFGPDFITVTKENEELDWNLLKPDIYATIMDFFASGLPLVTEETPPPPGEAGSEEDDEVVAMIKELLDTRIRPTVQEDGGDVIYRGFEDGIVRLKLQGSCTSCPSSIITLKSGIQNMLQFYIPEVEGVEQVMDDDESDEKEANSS

Regarding `CCO[C@@H]1OC(=O)C[C@@H]1NC(=O)[C@@H]1CCCN1C(=O)[C@@H](NC(=O)c1ccc(N)c(Cl)c1)C(C)(C)C`, the inhibition result in assay [1] and in assay [2] was “inactive” in each case. Besides, the outcome in assay [3], in assay [4] and in assay [5] was Active. The outcome in assay [6] was inactive. Further, the inhibition entry in [7], in assay [8], in assay [9] and in assay [10] was “Active” each time.
Take `COc1cc2c(c(OC)c1OC)-c1ccc(OC)c(=O)cc1[C@@H](NC(C)=O)CC2`: in assay [11], the outcome was Active.
As to `CC(C)(C)OC(=O)[C@@H]1C[C@@H](N=C=S)C=C[C@@]12C(=O)Nc1ccc(NC(=O)CCCC[C@@H]3SC[C@@H]4NC(=O)N[C@@H]43)cc12`, in [12], the inhibition entry was “Dose-Dependent Effect”. Further, the inhibition result in [13] was “Active”. Besides, the result in assay [14], in assay [16], in assay [17], in assay [18] and in assay [19] was Active. For the same molecule, the outcome in [15] was inactive.
